Laboratory results taken from article PMC9697025, “Discovery of N-Containing (-)-Borneol Esters as Respiratory Syncytial Virus Fusion Inhibitors” (Pharmaceuticals, 2022).
Read-outs that look alike come from different tables or passages of the source. Marks after values point to notes of the source that are not given here.

What was measured:
pSARS-CoV-2-S = test system: pSARS-CoV-2-S; set-up: method as in PMID 35746766; conditions: CC50/IC50pSARS-CoV-2-S, pseudovirus ref 14; cited from earlier work
[1] = test system: A/Puerto Rico/8/34 (H1N1) virus; set-up: method as in PMID 30108810; conditions: CC50/IC50H1N1, A/Puerto Rico/8/34 (H1N1) ref 15; cited from earlier work
Vaccinia virus = conditions: CC50/IC50VACV ref 16; cited from earlier work
rVSV-ΔG-EboV-GP = conditions: CC50/IC50EboV-GP, HEK293T cells ref 12,13; cited from earlier work
[2] = MTT cytotoxicity assay with non-infected HEp2 cells; conditions: human
RSV A strain A2 = assay: In vitro antiviral assay against RSV A strain A2 in HEp-2 cells (ELISA, virus titer); type: cell-based, respiratory syncytial virus; conditions: for IC50: RSV A strain A2 in HEp-2 cells, mean ± SD
rVSV-ΔG-MarV-GP = conditions: CC50/IC50MarV-GP, HEK293T cells ref 12,13; cited from earlier work
RSV = assay: Temperature shift assay (virus attachment at 4 °C vs post-binding); conditions: unbound virus washed away, compound added before shift to 37 °C
in vitro = conditions: human
SARS-CoV-2 = test system: SARS-CoV-2; set-up: method as in PMID 35746766; conditions: CC50/IC50SARS-CoV-2, against various SARS-CoV-2 virus strains ref 14; cited from earlier work
[3] = human respiratory syncytial virus, HEp-2, 50% decrease in virus replication

| Compound | SIpSARS-CoV-2-S (pSARS-CoV-2-S) | SIH1N1 [1] | SIVACV (Vaccinia virus) | SIEboV-GP (rVSV-ΔG-EboV-GP) | CC50 at 24 h [2] [µM] | SI (RSV A strain A2) | IC50 (RSV A strain A2; [3]) [µM] | SIMarV-GP (rVSV-ΔG-MarV-GP) | anti-RSV activity, temperature shift conditions (B) (RSV) | effect on viral titer, time-of-addition (RSV A strain; compound added at 1 h post infection) | inhibitory activity, time-of-addition (RSV A strain; compound added at later time points (after 2 h post infection)) | time of addition up to which antiviral activity was maintained (RSV A strain; post infection) | CC50 at 24 h (in vitro) [µM] | IC50 (RSV A strain A2; 50% decrease in virus replication) [µM] | SISARS-CoV-2 (SARS-CoV-2) | melting point [°C] | SI (RSV A strain A2; selectivity index, CC50/IC50 ratio, RSV A2 / HEp-2) |
| --- | --- | --- | --- | --- | --- | --- | --- | --- | --- | --- | --- | --- | --- | --- | --- | --- | --- |
| CC1(C)[C@H]2CC[C@]1(C)[C@H](OC(=O)CCN1CCOCC1)C2 [Compound 5b] | ^e SIpSARS-CoV-2-S = 18 | ^c SIH1N1 = 45 | ^d SIVACV = 48 | ^b SIEboV-GP = 36 | 127 ± 15.2 | 15 | 8.5 ± 2.8 | ^a SIMarV-GP = 5 | – | – | – | – | – | – | – | – | – |
| CC1(C)[C@H]2CC[C@]1(C)[C@H](OC(=O)CN1CCOCC1)C2 [Compound 5a] | ^e SIpSARS-CoV-2-S = 5 | ^c SIH1N1 = 82 | ^d SIVACV = 56 | ^b SIEboV-GP = 13 | 413 ± 35.1 | 83 | 5 ± 1 | ^a SIMarV-GP = 5 | antiviral activity was maintained | significant reduction in viral titer | lost their inhibitory activity | up to 2 h | – | – | – | – | – |
| NC(=O)c1ncn([C@@H]2O[C@H](CO)[C@@H](O)[C@H]2O)n1 [Ribavirin, reference compound] | – | – | – | – | – | 50 | 80 | – | – | – | – | – | < 4000 | 80.1 ± 13.5 | – | – | – |
| CCCCN(CCCC)CCC(=O)OC1CC2CCC1(C)C2(C)C (stereo not drawn) [IV (n=2)] | ^e SIpSARS-CoV-2-S = 29 | ^c SIH1N1 = 12 | – | – | – | – | – | ^a SIMarV-GP = 15 | – | – | – | – | – | – | SISARS-CoV-2 = 6–102 * | – | – |
| CCCCN(CCCC)CC(=O)OC1CC2CCC1(C)C2(C)C (stereo not drawn) [IV (n=1)] | ^e SIpSARS-CoV-2-S = 10 | ^c SIH1N1 = 16 | – | – | – | – | – | ^a SIMarV-GP = 6 | – | – | – | – | – | – | SISARS-CoV-2 = 11–40 * | – | – |
| CC1(C)[C@H]2CC[C@]1(C)[C@H](OC(=O)CCN1CCN(c3ccccc3)CC1)C2 [Compound 14b, (1S,2R,4S)-1,7,7-Trimethylbicyclo [2.2.1]heptan-2-yl 3-(4-phenylpiperazin-1-yl)propanoate] | – | – | – | – | 366 ± 25.8 | – | 8.1 ± 0.9 | – | – | – | – | – | – | – | – | 83 | 45 |
